# Source: Sander's compilation of Henry's law constants (doi:10.1016/1352-2310(94)00256-k)
# Test: Henry solubility constant Hcp at 298.15 K (mol/(m3 Pa))
# Conditions: reference: Dewulf et al. (1995)
row,Compound,Henry solubility constant Hcp
1,"Cc1ccc(C)cc1 [1,4-dimethylbenzene]",0.0017
2,Cc1ccccc1 [methylbenzene],0.0018
3,"Cc1cccc(C)c1 [1,3-dimethylbenzene]",0.0016
4,"Cc1ccccc1C [1,2-dimethylbenzene]",0.0024
5,"CC(Cl)(Cl)Cl [1,1,1-trichloroethane]",0.00067
6,c1ccccc1 [benzene],0.0021
7,ClC=C(Cl)Cl [trichloroethene],0.0012
8,ClC(Cl)(Cl)Cl [tetrachloromethane],0.00038
9,CCc1ccccc1 [ethylbenzene],0.0015
10,ClC(Cl)=C(Cl)Cl [tetrachloroethene],0.00069
